In US6432430B1, “Exfoliating scrub with niacinamide” (priority 2000, dated 2002):

System: acne
Assay: topical use of the exfoliating scrub on acne, washed off immediately after use
Assay type: in vivo
Details: niacinamide in exfoliating cream, cream immediately removed
From the text: The cream is applied to the affected area, typically the face, and is used in the same manner as other exfoliating scrubs by massaging the cream into the skin. The abrasive agent acts to remove dead skin cells and the niacinamide is brought into direct contact with the affected areas. The cream is then removed by washing the area with water, and if desired, a mild soap. […] The frequency with which the exfoliating scrub is applied depends upon several factors, including the severity of the skin condition, and the user's skin type and sensitivity. Patients having oily skin may use the scrub as often as once to twice per day. Patients having dry skin or sensitive skin generally will use the scrub less often. The precise frequency is determined on a case by case basis influenced by the actual results achieved. As described above, the cream is topically applied to the area to be treated and is gently massaged into the skin. The cream is then immediately removed, preferably with warm water. The skin may beneficially be thoroughly cleansed prior to application of the cream of the present invention. In all cases the scrub is washed from the skin immediately after use.

NC(=O)c1cccnc1 [niacinamide]
therapeutic effect on acne: beneficial therapeutic effect on acne
